These results are taken from ChEMBL document CHEMBL1201862, “PubChem BioAssay data set” (2004).

Assay [1] has as its target T1, Sentrin-specific protease 6 (Homo sapiens, UniProt Q9GZR1).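 Also: Luminescence-based dose-response confirmatory assay of SENP6 inhibition, following up an ultra-high-throughput screen.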
T1 sequence (Q9GZR1 whole entry): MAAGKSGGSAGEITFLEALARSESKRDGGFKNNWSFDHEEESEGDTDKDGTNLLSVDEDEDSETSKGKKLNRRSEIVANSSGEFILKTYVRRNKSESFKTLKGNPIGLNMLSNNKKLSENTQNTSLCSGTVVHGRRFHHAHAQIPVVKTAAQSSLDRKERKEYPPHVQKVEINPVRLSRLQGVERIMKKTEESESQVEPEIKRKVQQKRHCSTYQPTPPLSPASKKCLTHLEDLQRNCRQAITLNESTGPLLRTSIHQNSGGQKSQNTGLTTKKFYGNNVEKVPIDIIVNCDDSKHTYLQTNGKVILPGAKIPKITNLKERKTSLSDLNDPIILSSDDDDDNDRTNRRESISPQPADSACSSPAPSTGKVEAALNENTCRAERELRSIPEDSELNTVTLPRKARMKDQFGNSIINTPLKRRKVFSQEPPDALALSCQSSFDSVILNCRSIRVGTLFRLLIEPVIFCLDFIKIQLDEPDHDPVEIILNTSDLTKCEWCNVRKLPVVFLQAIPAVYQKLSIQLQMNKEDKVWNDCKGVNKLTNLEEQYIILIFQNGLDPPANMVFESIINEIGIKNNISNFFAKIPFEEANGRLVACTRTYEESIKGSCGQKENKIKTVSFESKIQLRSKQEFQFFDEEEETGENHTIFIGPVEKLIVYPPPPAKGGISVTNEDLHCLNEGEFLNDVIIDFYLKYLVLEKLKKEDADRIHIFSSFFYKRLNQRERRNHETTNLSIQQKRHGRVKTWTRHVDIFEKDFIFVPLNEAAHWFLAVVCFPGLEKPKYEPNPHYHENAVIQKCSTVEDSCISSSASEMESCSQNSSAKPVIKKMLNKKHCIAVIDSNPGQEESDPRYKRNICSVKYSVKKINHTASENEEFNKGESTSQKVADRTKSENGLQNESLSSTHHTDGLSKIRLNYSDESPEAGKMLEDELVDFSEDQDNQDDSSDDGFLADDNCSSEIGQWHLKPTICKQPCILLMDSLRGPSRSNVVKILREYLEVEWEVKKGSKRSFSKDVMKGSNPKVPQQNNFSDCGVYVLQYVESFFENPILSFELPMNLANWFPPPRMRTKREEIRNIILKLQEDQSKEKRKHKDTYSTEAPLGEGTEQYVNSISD
It counts as functional.

In assay [2] the target is T2, Sentrin-specific protease 8 (Homo sapiens, UniProt Q96LD8).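 Also: luminescence read-out of SENP8 inhibition, dose-response confirmation following an ultra-high-throughput screen.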
T2 sequence (Q96LD8 whole entry): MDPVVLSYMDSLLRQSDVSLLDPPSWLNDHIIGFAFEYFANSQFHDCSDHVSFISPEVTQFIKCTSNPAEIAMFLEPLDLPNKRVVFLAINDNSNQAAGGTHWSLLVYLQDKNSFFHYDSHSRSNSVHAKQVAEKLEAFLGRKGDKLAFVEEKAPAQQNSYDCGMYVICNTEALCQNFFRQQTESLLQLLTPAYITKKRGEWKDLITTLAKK
It counts as functional.

For a further assay, the target named is T3, Caspase-3 (Homo sapiens, UniProt P42574).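 Also: Dose-response selectivity test against caspase-3 for candidate inhibitors of sentrin-specific proteases (SENPs).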
T3 sequence (P42574 whole entry): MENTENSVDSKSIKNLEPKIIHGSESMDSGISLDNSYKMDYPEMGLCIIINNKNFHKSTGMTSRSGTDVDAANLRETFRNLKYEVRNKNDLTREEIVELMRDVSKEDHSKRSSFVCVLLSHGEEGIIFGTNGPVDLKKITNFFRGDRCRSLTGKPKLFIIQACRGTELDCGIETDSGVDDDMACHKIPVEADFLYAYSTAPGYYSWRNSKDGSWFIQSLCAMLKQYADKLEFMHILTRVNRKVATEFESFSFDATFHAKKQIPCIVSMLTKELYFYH
Type of assay: functional.

The target of assay [3] is T4, Sentrin-specific protease 7 (Homo sapiens, UniProt Q9BQF6).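 Also: Luminescence-based dose-response confirmation of ultra-high-throughput screening hits, measuring inhibition of SENP7.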
T4 sequence (Q9BQF6 whole entry): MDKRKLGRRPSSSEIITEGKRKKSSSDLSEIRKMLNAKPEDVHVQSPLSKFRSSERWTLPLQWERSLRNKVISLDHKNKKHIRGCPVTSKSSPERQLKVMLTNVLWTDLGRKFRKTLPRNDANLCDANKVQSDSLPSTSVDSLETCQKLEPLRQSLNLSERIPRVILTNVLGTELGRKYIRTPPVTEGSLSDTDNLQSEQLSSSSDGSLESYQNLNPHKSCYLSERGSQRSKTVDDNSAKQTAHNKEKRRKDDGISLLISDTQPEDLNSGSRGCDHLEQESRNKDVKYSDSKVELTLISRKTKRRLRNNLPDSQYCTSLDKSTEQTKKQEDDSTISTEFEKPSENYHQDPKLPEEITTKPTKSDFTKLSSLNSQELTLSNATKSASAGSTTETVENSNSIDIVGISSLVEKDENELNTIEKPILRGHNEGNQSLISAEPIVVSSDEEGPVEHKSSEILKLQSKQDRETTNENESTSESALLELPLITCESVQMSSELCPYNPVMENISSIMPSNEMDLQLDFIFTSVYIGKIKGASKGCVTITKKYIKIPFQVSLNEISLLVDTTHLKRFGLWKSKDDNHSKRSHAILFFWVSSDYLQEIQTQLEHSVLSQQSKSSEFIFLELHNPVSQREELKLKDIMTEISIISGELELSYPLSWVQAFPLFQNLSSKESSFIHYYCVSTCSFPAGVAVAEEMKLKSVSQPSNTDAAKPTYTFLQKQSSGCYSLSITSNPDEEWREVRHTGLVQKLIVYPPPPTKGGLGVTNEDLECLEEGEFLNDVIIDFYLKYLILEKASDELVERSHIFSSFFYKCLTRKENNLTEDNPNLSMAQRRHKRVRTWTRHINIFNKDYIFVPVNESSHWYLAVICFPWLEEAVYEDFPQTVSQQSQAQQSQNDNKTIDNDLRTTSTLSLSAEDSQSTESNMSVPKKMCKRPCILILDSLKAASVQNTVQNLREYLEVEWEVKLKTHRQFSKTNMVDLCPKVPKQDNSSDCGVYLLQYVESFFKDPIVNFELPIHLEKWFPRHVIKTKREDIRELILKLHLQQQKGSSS
Type of assay: functional.

For assay [4], the target named is DNA dC->dU-editing enzyme APOBEC-3A (Homo sapiens, UniProt P31941). Nature of the assay: SAR analysis of small molecule inhibitors of APOBEC3A DNA Deaminase via a fluorescence-based single-stranded DNA deaminase assay. Type of assay: functional. The conditions noted are these: read-out: IC50_Mean.
Chain of DNA dC->dU-editing enzyme APOBEC-3A (P31941 whole entry): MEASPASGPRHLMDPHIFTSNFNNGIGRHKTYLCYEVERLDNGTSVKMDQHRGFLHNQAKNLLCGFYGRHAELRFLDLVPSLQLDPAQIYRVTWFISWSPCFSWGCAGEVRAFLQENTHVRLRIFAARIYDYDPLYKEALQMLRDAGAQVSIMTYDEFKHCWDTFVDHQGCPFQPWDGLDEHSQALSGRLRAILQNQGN
Assay [5] has as its target T5, Short transient receptor potential channel 4 (Mus musculus, UniProt Q9QUQ5).
T5 sequence (Q9QUQ5 whole entry): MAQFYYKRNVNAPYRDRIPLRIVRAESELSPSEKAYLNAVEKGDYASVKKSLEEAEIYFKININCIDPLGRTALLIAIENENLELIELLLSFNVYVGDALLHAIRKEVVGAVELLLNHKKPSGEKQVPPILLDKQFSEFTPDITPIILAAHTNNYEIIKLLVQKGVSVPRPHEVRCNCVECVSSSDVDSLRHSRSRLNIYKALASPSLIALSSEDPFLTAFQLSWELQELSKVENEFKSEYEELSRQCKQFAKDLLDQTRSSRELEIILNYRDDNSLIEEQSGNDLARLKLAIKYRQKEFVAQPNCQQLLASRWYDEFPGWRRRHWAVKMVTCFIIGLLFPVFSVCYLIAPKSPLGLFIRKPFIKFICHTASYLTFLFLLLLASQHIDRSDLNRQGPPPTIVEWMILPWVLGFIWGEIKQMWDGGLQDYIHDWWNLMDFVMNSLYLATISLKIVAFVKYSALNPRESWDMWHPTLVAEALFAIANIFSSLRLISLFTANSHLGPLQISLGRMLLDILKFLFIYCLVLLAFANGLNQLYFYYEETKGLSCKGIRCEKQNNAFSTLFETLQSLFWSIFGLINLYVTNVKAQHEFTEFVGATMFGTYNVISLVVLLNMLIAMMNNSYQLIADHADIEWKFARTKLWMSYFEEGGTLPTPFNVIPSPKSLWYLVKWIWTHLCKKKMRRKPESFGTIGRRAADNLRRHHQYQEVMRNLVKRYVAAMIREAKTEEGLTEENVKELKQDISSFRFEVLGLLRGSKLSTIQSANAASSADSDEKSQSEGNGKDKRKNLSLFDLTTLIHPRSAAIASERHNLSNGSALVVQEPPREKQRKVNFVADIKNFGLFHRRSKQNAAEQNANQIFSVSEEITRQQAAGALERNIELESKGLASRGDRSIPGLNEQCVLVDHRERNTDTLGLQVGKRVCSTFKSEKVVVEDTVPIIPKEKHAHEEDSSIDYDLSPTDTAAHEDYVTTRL
Nature of the assay: calcium entry via TRPC4 opening agents – cell-based, HEK293 TRPC4/mu-opioid, Fluo-4 calcium, dose response (AID 434937). Type of assay: functional.

The target in assay [6] is DNA dC->dU-editing enzyme APOBEC-3G (Homo sapiens, UniProt Q9HC16). Nature of the assay: inhibition of APOBEC3G ssDNA deamination – biochemical, fluorescence, single-stranded DNA substrate, SAR follow-up (AID 602136). It counts as functional. Conditions: read-out: IC50_Mean.
Chain of DNA dC->dU-editing enzyme APOBEC-3G (Q9HC16 whole entry): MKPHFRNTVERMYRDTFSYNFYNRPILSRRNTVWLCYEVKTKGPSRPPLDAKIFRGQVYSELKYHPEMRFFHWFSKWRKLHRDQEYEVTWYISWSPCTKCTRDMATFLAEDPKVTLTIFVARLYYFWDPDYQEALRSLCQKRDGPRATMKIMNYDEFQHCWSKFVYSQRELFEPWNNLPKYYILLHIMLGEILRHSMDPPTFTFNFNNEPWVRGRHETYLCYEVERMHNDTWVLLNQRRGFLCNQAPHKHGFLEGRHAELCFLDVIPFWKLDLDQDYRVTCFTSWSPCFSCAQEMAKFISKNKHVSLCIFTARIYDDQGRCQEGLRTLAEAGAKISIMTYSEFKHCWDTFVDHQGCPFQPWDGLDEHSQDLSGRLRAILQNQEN
A further assay concerns the target Beta Lactamase (Pseudomonas aeruginosa, UniProt Q932Y6). Nature of the assay: BLA reporter interference, concentration series – BLA reporter cells, FRET fluorescence, artefact control for TLR9-MyD88 binding inhibitor project, dose response (AID 588341).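 Also: cell based assay in CHO-K1 cells stably expressing beta-lactamase.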 It counts as cell-based.
The target of assay [7] is Heat shock protein HSP 90-alpha (Homo sapiens, UniProt P07900). It counts as functional, organism-based.
Assay [8] is described as follows: Luminescence Cell-Based Dose Retest to Confirm Inhibitors of Cancer Stem Cells. [Related pubchem assays (depositor defined):AID2717, AID2721]. It counts as functional. The conditions noted are these: Homo sapiens.
In a further assay the test system is Streptococcus. Nature of the assay: GAS UMAA2166 growth inhibition – luminescence, BacTiterGlo, counter-screen for streptokinase expression inhibitor project, dose response (AID 1915).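 Also: potency for reduction of bacterial viability or growth.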 It counts as functional, organism-based. On the technique in general: A counterscreen serves to expose hits that act by an unwanted route or on another target.
Assay [9] relates to Streptococcus sp. 'group A'. The assay is described as follows: Streptococcus pyogenes SK(-)GAS viability under kanamycin – luminescence, BacTiterGlo, confirmation, counter-screen for streptokinase expression inhibitor project, dose response (AID 1900). Type of assay: functional, organism-based.
Assay [10] in a line: Trypanosoma cruzi growth suppression in host cells – NIH3T3 host cells, beta-gal luminescence, confirmation (AID 2044).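 Also: intracellular parasites grown in NIH/3T3 mouse fibroblasts as host cells; luminescent beta-galactosidase reporter signal from transgenic T. cruzi replicating inside host cells; inhibitors lower the luminescence signal.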 Type of assay: functional, cell-based.
A short description of assay [11]: NIH3T3 cell viability loss – ATP luminescence, mouse fibroblasts, counter-screen, dose response (AID 2010).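 Also: cells exposed to compound for about 90 hours before reading.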 It counts as functional, cell-based.
A further assay deals with CHO. Nature of the assay: CHO cell viability loss, potency – luminescence, cytotoxicity control for TLR9-MyD88 binding inhibitor project, dose response (AID 588339).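 Also: CHO cells stably coexpressing TLR9 and MyD88 fusions from primary screen; compound exposure lasted 48 hours before viability readout.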 It counts as functional, cell-based, hamster. Conditions: Cricetulus griseus.
For the next assay, the target named is Cysteine protease ATG4B (Homo sapiens, UniProt Q9Y4P1). Type of assay: functional.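 Also: Fluorescence-based dose-response confirmation assay measuring inhibition of ATG4B activity.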
Chain of Cysteine protease ATG4B (Q9Y4P1 whole entry): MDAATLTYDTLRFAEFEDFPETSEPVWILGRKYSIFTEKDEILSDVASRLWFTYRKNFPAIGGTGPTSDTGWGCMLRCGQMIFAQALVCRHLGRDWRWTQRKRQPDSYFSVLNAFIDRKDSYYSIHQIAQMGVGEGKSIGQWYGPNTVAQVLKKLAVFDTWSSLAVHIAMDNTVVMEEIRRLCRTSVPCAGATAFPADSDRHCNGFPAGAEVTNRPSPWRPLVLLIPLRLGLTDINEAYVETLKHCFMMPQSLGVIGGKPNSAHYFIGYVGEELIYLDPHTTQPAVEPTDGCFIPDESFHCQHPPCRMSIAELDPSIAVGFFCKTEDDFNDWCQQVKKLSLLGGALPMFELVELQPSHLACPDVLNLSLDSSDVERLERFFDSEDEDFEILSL
A further assay concerns the target Phospholipase A2 (Homo sapiens, UniProt P04054). It counts as functional.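 Also: confirmatory dose-response counterscreen on phospholipase A2, testing hits that came from an ultra-high-throughput screen for ATG4B inhibitors.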
Assay [12] has as its target Protein disulfide-isomerase (Homo sapiens, UniProt P07237). Nature of the assay: inhibition of PDI-driven insulin aggregation – biochemical, turbidity, absorbance, cherry-picked samples, dose response (AID 602350). It counts as functional.
A short description of assay [13]: microbe, parasite or virus in culture. It counts as functional. Conditions: Mycobacterium tuberculosis.
In the next assay the target is Genome polyprotein (dengue virus type 2, UniProt P29990). Nature of the assay: flavivirus cap methylation enzyme inhibition – biochemical, confirmation dose response, primary screen (AID 588689). It counts as functional.
Chain of Genome polyprotein (P29990 2492-3391 limits assumed): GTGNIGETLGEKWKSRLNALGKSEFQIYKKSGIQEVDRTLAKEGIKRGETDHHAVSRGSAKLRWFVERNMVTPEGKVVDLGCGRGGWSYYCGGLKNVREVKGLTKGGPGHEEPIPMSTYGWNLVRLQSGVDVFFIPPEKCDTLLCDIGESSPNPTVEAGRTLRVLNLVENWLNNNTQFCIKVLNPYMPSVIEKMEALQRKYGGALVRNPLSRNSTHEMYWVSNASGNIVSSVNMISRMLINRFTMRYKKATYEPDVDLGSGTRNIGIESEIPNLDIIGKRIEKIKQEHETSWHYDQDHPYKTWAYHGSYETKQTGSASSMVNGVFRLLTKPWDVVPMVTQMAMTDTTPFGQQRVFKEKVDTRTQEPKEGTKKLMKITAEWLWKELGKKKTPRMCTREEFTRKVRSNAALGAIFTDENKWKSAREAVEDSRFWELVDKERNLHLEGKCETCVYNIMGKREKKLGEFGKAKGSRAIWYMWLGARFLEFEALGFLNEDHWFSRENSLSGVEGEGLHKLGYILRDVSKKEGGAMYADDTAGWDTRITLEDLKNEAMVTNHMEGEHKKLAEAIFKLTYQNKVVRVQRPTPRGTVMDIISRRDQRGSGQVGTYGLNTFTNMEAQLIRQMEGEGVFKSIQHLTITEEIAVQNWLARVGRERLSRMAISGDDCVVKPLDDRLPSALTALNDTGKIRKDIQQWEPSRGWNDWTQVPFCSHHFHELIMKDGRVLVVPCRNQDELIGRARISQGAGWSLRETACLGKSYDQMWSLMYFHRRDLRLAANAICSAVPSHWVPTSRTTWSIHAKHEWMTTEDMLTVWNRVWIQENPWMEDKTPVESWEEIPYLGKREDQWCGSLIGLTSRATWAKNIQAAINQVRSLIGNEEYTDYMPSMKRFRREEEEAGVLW
The next assay has as its system INS1. Nature of the assay: INS-1E survival protection against cytokine death – cell-based, luminescence, retest, dose response (AID 449756).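 Also: cell death triggered by IL-1 beta plus TNF-alpha plus IFN-gamma mixture; protective hits raise ATP signal compared with cytokine alone wells.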 It counts as functional. Conditions: Rattus norvegicus.
Assay [14] concerns the target T5, Short transient receptor potential channel 4. The assay is described as follows: block of DAMGO-driven TRPC4 calcium entry – cell-based, HEK293 TRPC4/mu-opioid, Fluo-4 calcium, dose response (AID 434942).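 Also: potency of inhibitors blocking the TRPC4 calcium response.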 It counts as functional.

Active and inactive are the calls of the source. Where only a bound is given, the exact number is not on record here.

Chain of Phospholipase A2 (P04054 whole entry): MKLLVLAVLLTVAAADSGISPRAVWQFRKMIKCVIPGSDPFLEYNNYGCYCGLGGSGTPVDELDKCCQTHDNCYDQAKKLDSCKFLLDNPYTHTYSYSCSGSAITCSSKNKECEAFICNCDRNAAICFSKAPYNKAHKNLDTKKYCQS
Chain of Beta Lactamase (Q932Y6 whole entry): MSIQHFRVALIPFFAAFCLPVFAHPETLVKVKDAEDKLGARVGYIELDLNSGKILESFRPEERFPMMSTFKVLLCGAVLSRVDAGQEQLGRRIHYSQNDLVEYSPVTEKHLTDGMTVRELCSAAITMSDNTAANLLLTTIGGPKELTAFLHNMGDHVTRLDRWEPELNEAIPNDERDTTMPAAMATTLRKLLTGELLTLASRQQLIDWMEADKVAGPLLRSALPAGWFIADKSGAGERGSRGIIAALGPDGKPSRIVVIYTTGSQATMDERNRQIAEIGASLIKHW
Chain of Protein disulfide-isomerase (P07237 whole entry): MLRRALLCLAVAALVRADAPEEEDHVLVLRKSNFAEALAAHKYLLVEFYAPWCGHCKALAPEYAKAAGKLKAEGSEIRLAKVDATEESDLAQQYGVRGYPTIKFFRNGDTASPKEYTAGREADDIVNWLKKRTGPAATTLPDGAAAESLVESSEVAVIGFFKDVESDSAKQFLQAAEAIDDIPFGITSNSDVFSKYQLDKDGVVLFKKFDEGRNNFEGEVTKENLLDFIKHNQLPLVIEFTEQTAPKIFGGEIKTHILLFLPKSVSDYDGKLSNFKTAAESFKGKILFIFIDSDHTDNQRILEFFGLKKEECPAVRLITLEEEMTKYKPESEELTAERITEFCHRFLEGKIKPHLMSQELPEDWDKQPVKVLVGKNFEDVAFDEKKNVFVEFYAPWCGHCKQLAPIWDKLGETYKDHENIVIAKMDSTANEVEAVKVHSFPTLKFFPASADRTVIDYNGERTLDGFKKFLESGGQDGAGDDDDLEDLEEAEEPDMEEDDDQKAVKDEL

As for `O=C(Nc1ccc(Br)cn1)c1ccc(Br)s1`, the IC50 in [1] is > 100 µM (inactive); in assay [2], > 100 µM (inactive); at Caspase-3 it was 20.4 µM (active); in assay [3] it was 6.53 µM (active).

Consider `COc1ccc2c(Cl)c(-c3nnc4n3CCCCC4)sc2c1`, for which the IC50 in [4] and in [6] was > 99 µM (inactive) in each case. Also, the EC50 (usually the concentration needed to bring the measured effect to its halfway point) in assay [5] was 1.88 µM (active).

For the compound `O=[N+]([O-])c1ccc(N2N=C(c3ccccc3)CC2c2ccccc2O)cc1` (centres undefined), the figures for the IC50 on Beta Lactamase and in the assay on CHO were 4.58 µM (active) and 28.5 µM (inactive), respectively. Also, the AC50 (as a rule, the concentration at which the activity in the assay is half-maximal) in assay [7] is 3.31 µM (active); in assay [8], 2.65 µM (active). For the same compound, the EC50 with Streptococcus was 3.46 µM (active); in assay [9], 2.31 µM (active); in [10], 1.45 µM (active); in assay [11], > 60 µM (not active).

On to `O=C(CSc1nnc(COc2ccc(Cl)cc2)n1Cc1ccco1)c1ccccc1F`, for which the figures for the IC50 at Cysteine protease ATG4B and on Phospholipase A2 were 2.36 µM (active) and 55.7 µM (inactive), respectively.

Consider `Cc1cccn2c(CN(C)C3CCCc4ccccc43)c(C(=O)N3CCOCC3)nc12` (centres undefined), for which, in assay [12], the AC50 was 19.5 µM (active).

On to `N#Cc1c([N+](=O)[O-])cc([N+](=O)[O-])cc1S(=O)(=O)Cc1ccccc1`, for which the CC50 in assay [13] is > 40 µM (active). Besides, the IC50 at Beta Lactamase is 12.1 µM (inactive); at Genome polyprotein it was > 100 µM (active); in the assay with CHO, 1.6 µM (active). Further, the AC50 in assay [8] was 1.61 µM (active); in the assay with INS1, 3.59 µM (active).

Consider `O=C(O)c1cc(NN=C2c3ccccc3-c3ccccc32)ccc1Cl`, for which the values for the IC50 on Cysteine protease ATG4B and at Phospholipase A2 were 9.33 µM (active) and 9.27 µM (active), respectively. Also, the EC50 in assay [14] was 2.99 µM (active).

For `Cc1nc(Cc2nnc(SCC(=O)c3cc(C)n(Cc4ccccc4)c3C)o2)cs1`, the IC50 in assay [4] and in assay [6] was > 99 µM (inactive) in each case.
